According to PubChem BioAssay (NCI):
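Grown in 96-well plates, cells were treated for 48 hours with each compound at five concentrations. Insufficient inhibition: endpoint recorded as highest concentration tested. GI50 is the concentration that inhibits growth by half. TGI: concentration producing complete growth inhibition.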

Tests used:
Assay in all cases: growth of human tumour cells (NCI), 48 h
SK-MEL-28 melanoma = system: SK-MEL-28 melanoma
HL-60(TB) leukemia = system: HL-60(TB) leukemia
BT-549 breast = system: BT-549 breast
SF-539 CNS = system: SF-539 CNS
UACC-257 melanoma = system: UACC-257 melanoma
NCI-H226 lung = system: NCI-H226 lung
SNB-75 CNS = system: SNB-75 CNS
M14 melanoma = system: M14 melanoma
EKVX NSCLC = system: EKVX NSCLC
HCC-2998 colon = system: HCC-2998 colon

| SMILES | GI50 (SK-MEL-28 melanoma) [µM] | TGI (SK-MEL-28 melanoma) [µM] | GI50 (HL-60(TB) leukemia) [µM] | TGI (HL-60(TB) leukemia) [µM] | GI50 (BT-549 breast) [µM] | TGI (BT-549 breast) [µM] | GI50 (SF-539 CNS) [µM] | TGI (SF-539 CNS) [µM] | GI50 (UACC-257 melanoma) [µM] | TGI (UACC-257 melanoma) [µM] | GI50 (NCI-H226 lung) [µM] | TGI (NCI-H226 lung) [µM] | GI50 (SNB-75 CNS) [µM] | TGI (SNB-75 CNS) [µM] | GI50 (M14 melanoma) [µM] | TGI (M14 melanoma) [µM] | GI50 (EKVX NSCLC) [µM] | TGI (EKVX NSCLC) [µM] | GI50 (HCC-2998 colon) [µM] | TGI (HCC-2998 colon) [µM] |
| --- | --- | --- | --- | --- | --- | --- | --- | --- | --- | --- | --- | --- | --- | --- | --- | --- | --- | --- | --- | --- |
| OCC(O)C(O)C(O)/C=N/Nc1nc2ccccc2nc1-c1ccccc1 (stereo not given) | > 100 | > 100 | 5.15 | > 100 | > 100 | > 100 | 20.5 | > 100 | > 100 | > 100 | > 100 | > 100 | > 100 | > 100 | > 100 | > 100 | > 100 | > 100 | 91.2 | > 100 |
| C=C1C(=O)OC2CC(C)C3C=CC(=O)C3CC12 (stereo not given) | – | 4.16 | – | 4.95 | – | 9.94 | – | 4.92 | – | 4.9 | – | 8.21 | – | 18.5 | – | 3.46 | – | 26.3 | – | 16.5 |
| C/C(=N\N=C(N)N)C(CN(C)C)C(c1ccccc1)c1c(O)c2ccccc2oc1=O (stereo not given) | – | > 100 | – | > 100 | – | > 100 | – | > 100 | – | > 100 | – | > 100 | – | > 100 | – | > 100 | – | > 100 | – | > 100 |
| C[C@H](N)C(=O)N1C[C@H](CCCB(O)O)[C@](N)(C(=O)O)C1 | > 100 | > 100 | > 100 | > 100 | > 100 | > 100 | > 100 | > 100 | > 100 | > 100 | > 100 | > 100 | > 100 | > 100 | > 100 | > 100 | > 100 | > 100 | > 100 | > 100 |
| CS(=O)(=O)OCCN(CCOS(C)(=O)=O)c1ccc(C=O)cc1 | – | 52.6 | – | 35.4 | – | > 69.8 | – | 17.4 | – | 39.2 | – | 13.4 | – | 13.1 | – | 30.4 | – | 25.4 | – | 8.36 |
